Laboratory results: ChEMBL document CHEMBL1201862, “PubChem BioAssay data set” (2004)
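Test compounds were applied to cells in 96-well plates for 48 hours at 5 doses. GI50 = concentration required for 50% inhibition of growth.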 Calls of active or inactive are those of the source. No stated cut-off is given here; in the data, active = GI50 up to about 1.1 µM and inactive = higher.

Tests used:
Assay in all cases: NCI anticancer screen, dose series, 48 h
786-0 = tested on: 786-0
SW-620 = tested on: SW-620
EKVX = tested on: EKVX
SK-MEL-28 = tested on: SK-MEL-28
IGROV-1 = tested on: IGROV-1
MDA-N = tested on: MDA-N
MDA-MB-435 = tested on: MDA-MB-435
PC-3 = tested on: PC-3
NCI-H23 = tested on: NCI-H23
HT-29 = tested on: HT-29
SF-295 = tested on: SF-295
DU-145 = tested on: DU-145
HCC 2998 = tested on: HCC 2998
U-251 = tested on: U-251
NCI-H460 = tested on: NCI-H460
LOX IMVI = tested on: LOX IMVI
KM12 = tested on: KM12
SF-268 = tested on: SF-268
T47D = tested on: T47D
SNB-75 = tested on: SNB-75

Measured: GI50

O=C(O)CC(C(=O)O)C1c2ccccc2-c2ccccc21 (stereo not drawn)
inactive: 786-0 > 100 µM | SW-620 > 100 µM | EKVX > 100 µM | SK-MEL-28 > 100 µM | IGROV-1 70 µM | MDA-N > 100 µM | MDA-MB-435 77.1 µM | PC-3 > 100 µM | NCI-H23 92.3 µM | HT-29 > 100 µM | SF-295 45.1 µM | DU-145 17.9 µM | HCC 2998 > 100 µM | U-251 39.3 µM | NCI-H460 33.6 µM | LOX IMVI 38.5 µM | KM12 66.8 µM | SF-268 79.6 µM | T47D 20.2 µM

O=[N+]([O-])c1cccc(Cl)c1Oc1ccc(S(=O)(=O)N/C(=N\O)Nc2ccc(Cl)cc2)cc1
inactive: 786-0 12.9 µM | SW-620 15.1 µM | EKVX 12.2 µM | SK-MEL-28 15.1 µM | IGROV-1 15.1 µM | MDA-N 12.7 µM | MDA-MB-435 14.3 µM | PC-3 11.5 µM | NCI-H23 15.5 µM | HT-29 17.1 µM | SF-295 16.1 µM | DU-145 15.5 µM | HCC 2998 10.8 µM | U-251 13.6 µM | NCI-H460 12.8 µM | LOX IMVI 14.3 µM | KM12 15.9 µM | SF-268 9.1 µM | T47D 5.97 µM

Cc1cc(S(=O)(=O)[N-]C(=C(C#N)C#N)[n+]2ccc(N(C)C)cc2)c(SCC(=O)O)cc1Cl
inactive: 786-0 > 100 µM | EKVX > 100 µM | SK-MEL-28 > 100 µM | IGROV-1 > 100 µM | MDA-N > 100 µM | MDA-MB-435 > 100 µM | PC-3 > 100 µM | NCI-H23 > 100 µM | HT-29 > 100 µM | SF-295 > 100 µM | DU-145 > 100 µM | HCC 2998 > 100 µM | U-251 > 100 µM | NCI-H460 > 100 µM | KM12 > 100 µM | SF-268 > 100 µM | T47D > 100 µM

C=CC[C@@]1([C@H](C=C)COCc2ccc(OC)cc2)CC[C@]2(C)OC(C)(C)[C@@H](c3ccccc3)N2C1=S
inactive: 786-0 58.6 µM | SW-620 53 µM | EKVX 26.2 µM | SK-MEL-28 57.1 µM | MDA-N 49.5 µM | MDA-MB-435 > 100 µM | PC-3 31.4 µM | NCI-H23 40.4 µM | HT-29 29 µM | SF-295 43.1 µM | SNB-75 60.1 µM | DU-145 54.5 µM | HCC 2998 44.8 µM | U-251 34.2 µM | NCI-H460 44.4 µM | LOX IMVI 40.8 µM | KM12 36.9 µM | SF-268 53.5 µM | T47D 37.3 µM

CCCCCCCCCCCCOC1C(COCCN2CCCCC2)OC2OC(C)(C)OC21 (stereo not drawn)
inactive: 786-0 1.73 µM | SW-620 1.77 µM | SK-MEL-28 1.82 µM | IGROV-1 1.83 µM | MDA-N 1.53 µM | MDA-MB-435 1.76 µM | PC-3 1.75 µM | NCI-H23 2.47 µM | HT-29 1.21 µM | SF-295 1.69 µM | DU-145 10 µM | HCC 2998 1.64 µM | U-251 2.02 µM | NCI-H460 1.9 µM | LOX IMVI 1.55 µM | KM12 1.64 µM | SF-268 2.67 µM | T47D 1.94 µM

COCCN1C(=O)C2c3[nH]c4ccccc4c3C3CCC(C(C)(C)C)CC3C2C1=O (stereo not drawn)
inactive: 786-0 17.2 µM | SW-620 17.3 µM | EKVX 17.9 µM | SK-MEL-28 17.5 µM | IGROV-1 23.2 µM | MDA-N 14.5 µM | MDA-MB-435 18.7 µM | PC-3 13.4 µM | NCI-H23 22.6 µM | HT-29 13.2 µM | SF-295 18.6 µM | SNB-75 17.5 µM | DU-145 19.1 µM | HCC 2998 19.3 µM | U-251 15.5 µM | NCI-H460 14.8 µM | KM12 19.2 µM | SF-268 19.2 µM | T47D 20 µM

Cc1nc(N)c(N2CCNCC2)c(O)n1
inactive: 786-0 > 100 µM | SW-620 > 100 µM | EKVX > 100 µM | SK-MEL-28 > 100 µM | MDA-N > 100 µM | MDA-MB-435 > 100 µM | PC-3 > 100 µM | NCI-H23 > 100 µM | HT-29 > 100 µM | SF-295 > 100 µM | SNB-75 > 100 µM | DU-145 > 100 µM | HCC 2998 > 100 µM | U-251 > 100 µM | NCI-H460 > 100 µM | LOX IMVI > 100 µM | KM12 > 100 µM | SF-268 > 100 µM | T47D > 100 µM

C=C1CCC2[C@](C)(CCC[C@]2(C)C(=O)O)[C@@H]1CCc1ccoc1 (stereo partly drawn)
inactive: 786-0 48.6 µM | SW-620 53.7 µM | EKVX 34.3 µM | SK-MEL-28 61.1 µM | IGROV-1 32.4 µM | MDA-N 61.8 µM | MDA-MB-435 41.3 µM | PC-3 46 µM | NCI-H23 21.4 µM | HT-29 24.2 µM | SF-295 47.5 µM | SNB-75 67.3 µM | DU-145 43.5 µM | HCC 2998 43.8 µM | NCI-H460 33.9 µM | LOX IMVI 16.9 µM | KM12 18.7 µM | SF-268 50.4 µM | T47D 57.8 µM

CC(=O)O[C@@H](C1C[C@@H](C)[C@H]2[C@@](O)(O1)[C@H](O)[C@@]1(C)C3=CC[C@H]4C(C)(C)[C@@H](OC5OCC(O)C(O)C5O)CC[C@@]45C[C@@]35CC[C@]21C)C(C)(C)O (stereo partly drawn)
inactive: 786-0 26.1 µM | SW-620 30.2 µM | EKVX 24.2 µM | SK-MEL-28 23.2 µM | IGROV-1 33.2 µM | MDA-N 26.9 µM | MDA-MB-435 24 µM | PC-3 21.7 µM | NCI-H23 22.4 µM | HT-29 25.8 µM | SF-295 21.1 µM | DU-145 25.5 µM | HCC 2998 14.3 µM | U-251 16.8 µM | NCI-H460 18.2 µM | LOX IMVI 19.5 µM | KM12 22.5 µM | SF-268 34 µM | T47D 23.7 µM

OCC1OC(NC(=S)NCSCCC(F)(F)C(F)(F)C(F)(F)C(F)(F)C(F)(F)C(F)(F)F)C(O)C(O)C1O (stereo not drawn)
inactive: 786-0 45.8 µM | SW-620 39.4 µM | SK-MEL-28 5.77 µM | IGROV-1 31.8 µM | MDA-N 43.6 µM | MDA-MB-435 16.4 µM | PC-3 33.6 µM | NCI-H23 39.5 µM | HT-29 34.2 µM | SF-295 23.1 µM | SNB-75 96.4 µM | DU-145 81.8 µM | HCC 2998 43.8 µM | U-251 17.5 µM | NCI-H460 34 µM | LOX IMVI 34.4 µM | KM12 38.7 µM | SF-268 15.2 µM | T47D > 100 µM

O=C(CC(=O)Nc1cccc(C(=O)O)c1)Nc1cccc(C(=O)O)c1
inactive: 786-0 > 100 µM | SW-620 > 100 µM | EKVX > 100 µM | SK-MEL-28 > 100 µM | IGROV-1 > 100 µM | MDA-N > 100 µM | MDA-MB-435 > 100 µM | PC-3 > 100 µM | NCI-H23 > 100 µM | HT-29 > 100 µM | SF-295 > 100 µM | DU-145 > 100 µM | HCC 2998 > 100 µM | U-251 > 100 µM | NCI-H460 > 100 µM | LOX IMVI > 100 µM | KM12 > 100 µM | SF-268 > 100 µM | T47D > 100 µM

O=C(Nc1nn(C(=O)c2ccc(Cl)cc2)c(=O)s1)c1ccc(Cl)cc1
inactive: 786-0 > 100 µM | SW-620 > 100 µM | EKVX 94.8 µM | SK-MEL-28 > 100 µM | IGROV-1 > 100 µM | MDA-N > 100 µM | MDA-MB-435 > 100 µM | PC-3 > 100 µM | NCI-H23 > 100 µM | HT-29 > 100 µM | SF-295 > 100 µM | DU-145 > 100 µM | HCC 2998 > 100 µM | U-251 > 100 µM | NCI-H460 > 100 µM | LOX IMVI > 100 µM | KM12 > 100 µM | SF-268 > 100 µM | T47D > 100 µM

Nc1ncnc2c1ncn2[C@@H]1O[C@H](C(=O)O)[C@@H](O)[C@H]1O [5'-CARBOXY ADENOSINE]
inactive: 786-0 > 100 µM | SW-620 > 100 µM | EKVX > 100 µM | SK-MEL-28 > 100 µM | IGROV-1 > 100 µM | MDA-N > 100 µM | MDA-MB-435 > 100 µM | PC-3 > 100 µM | NCI-H23 > 100 µM | HT-29 > 100 µM | SF-295 > 100 µM | SNB-75 > 100 µM | DU-145 > 100 µM | U-251 > 100 µM | NCI-H460 > 100 µM | LOX IMVI > 100 µM | KM12 > 100 µM | SF-268 > 100 µM | T47D > 100 µM

CC(=O)C(=NNc1ccc(-n2c(C)nc3ccccc3c2=O)cc1)C(C)=O
inactive: 786-0 > 100 µM | SW-620 > 100 µM | EKVX > 100 µM | SK-MEL-28 > 100 µM | IGROV-1 > 100 µM | MDA-N > 100 µM | MDA-MB-435 > 100 µM | PC-3 > 100 µM | NCI-H23 > 100 µM | HT-29 > 100 µM | SF-295 > 100 µM | SNB-75 > 100 µM | DU-145 > 100 µM | U-251 > 100 µM | NCI-H460 > 100 µM | LOX IMVI > 100 µM | KM12 55 µM | SF-268 > 100 µM | T47D > 100 µM
